Results: PubChem BioAssay (NCI)
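1) Cells in 96-well plates. 2) Compound, 48 h, 5 concentrations. 3) Linear interpolation between surrounding doses. 4) Unreached endpoint = highest concentration. TGI marks complete inhibition of growth.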

Columns and labels:
Test in all cases: growth of human tumour cells (NCI), 48 h
SNB-19 CNS = tested on: SNB-19 CNS
HT29 colon = tested on: HT29 colon
HOP-18 NSCLC = tested on: HOP-18 NSCLC
MALME-3M melanoma = tested on: MALME-3M melanoma
DMS 114 small cell lung = tested on: DMS 114 small cell lung
NCI-H23 lung = tested on: NCI-H23 lung
SW-620 colon = tested on: SW-620 colon
SR leukemia = tested on: SR leukemia
SF-268 CNS = tested on: SF-268 CNS
ACHN renal = tested on: ACHN renal
CCRF-CEM leukemia = tested on: CCRF-CEM leukemia
A549 NSCLC = tested on: A549 NSCLC
HOP-62 NSCLC = tested on: HOP-62 NSCLC
M14 melanoma = tested on: M14 melanoma
NCI-H226 lung = tested on: NCI-H226 lung
HOP-92 NSCLC = tested on: HOP-92 NSCLC
RXF 393 renal = tested on: RXF 393 renal
OVCAR-5 ovarian = tested on: OVCAR-5 ovarian
HCT-15 colon = tested on: HCT-15 colon
SN12C renal = tested on: SN12C renal
LOX IMVI melanoma = tested on: LOX IMVI melanoma
XF 498 CNS = tested on: XF 498 CNS
OVCAR-8 ovarian = tested on: OVCAR-8 ovarian
U251 CNS = tested on: U251 CNS
RXF-631 renal = tested on: RXF-631 renal
CAKI-1 renal = tested on: CAKI-1 renal
HCC-2998 colon = tested on: HCC-2998 colon
MOLT-4 leukemia = tested on: MOLT-4 leukemia
HCT-116 colon = tested on: HCT-116 colon
HL-60(TB) leukemia = tested on: HL-60(TB) leukemia
SK-MEL-2 melanoma = tested on: SK-MEL-2 melanoma
K-562 leukemia = tested on: K-562 leukemia
786-0 renal = tested on: 786-0 renal
NCI-H460 lung = tested on: NCI-H460 lung
COLO 205 colon = tested on: COLO 205 colon
DLD-1 colon = tested on: DLD-1 colon
UACC-62 melanoma = tested on: UACC-62 melanoma
A498 renal = tested on: A498 renal
UACC-257 melanoma = tested on: UACC-257 melanoma
SF-295 CNS = tested on: SF-295 CNS
SK-OV-3 ovarian = tested on: SK-OV-3 ovarian
SNB-75 CNS = tested on: SNB-75 CNS
NCI-H522 lung = tested on: NCI-H522 lung
OVCAR-4 ovarian = tested on: OVCAR-4 ovarian
RPMI-8226 leukemia = tested on: RPMI-8226 leukemia
SK-MEL-5 melanoma = tested on: SK-MEL-5 melanoma
M19-MEL melanoma = tested on: M19-MEL melanoma
TK-10 renal = tested on: TK-10 renal
IGROV1 ovarian = tested on: IGROV1 ovarian
OVCAR-3 ovarian = tested on: OVCAR-3 ovarian
SNB-78 CNS = tested on: SNB-78 CNS
DMS 273 small cell lung = tested on: DMS 273 small cell lung
SF-539 CNS = tested on: SF-539 CNS
SK-MEL-28 melanoma = tested on: SK-MEL-28 melanoma
LXFL 529 NSCLC = tested on: LXFL 529 NSCLC
KM12 colon = tested on: KM12 colon
UO-31 renal = tested on: UO-31 renal
EKVX NSCLC = tested on: EKVX NSCLC
KM20L2 colon = tested on: KM20L2 colon

C=C[C@]1(C)CCC2=C(CCC3C2(C)CCC[C@]3(C)CO)C1 (stereo not given in full)
TGI (SNB-19 CNS): > 100 µM
TGI (HT29 colon): 48 µM
TGI (HOP-18 NSCLC): > 100 µM
TGI (MALME-3M melanoma): > 100 µM
TGI (DMS 114 small cell lung): 74.6 µM
TGI (NCI-H23 lung): > 100 µM
TGI (SW-620 colon): > 100 µM
TGI (SR leukemia): > 100 µM
TGI (SF-268 CNS): > 100 µM
TGI (ACHN renal): > 100 µM
TGI (CCRF-CEM leukemia): > 100 µM
TGI (A549 NSCLC): > 100 µM
TGI (HOP-62 NSCLC): > 100 µM
TGI (M14 melanoma): > 100 µM
TGI (NCI-H226 lung): > 100 µM
TGI (HOP-92 NSCLC): > 100 µM
TGI (RXF 393 renal): 84.4 µM
TGI (OVCAR-5 ovarian): > 100 µM
TGI (HCT-15 colon): > 100 µM
TGI (SN12C renal): 43.6 µM
TGI (LOX IMVI melanoma): 68 µM
TGI (XF 498 CNS): > 100 µM
TGI (OVCAR-8 ovarian): > 100 µM
TGI (U251 CNS): 63.8 µM
TGI (RXF-631 renal): > 100 µM
TGI (CAKI-1 renal): > 100 µM
TGI (HCC-2998 colon): > 100 µM
TGI (MOLT-4 leukemia): 84.9 µM
TGI (HCT-116 colon): > 100 µM
TGI (HL-60(TB) leukemia): 52.2 µM
TGI (SK-MEL-2 melanoma): > 100 µM
TGI (K-562 leukemia): > 100 µM
TGI (786-0 renal): > 100 µM
TGI (NCI-H460 lung): > 100 µM
TGI (COLO 205 colon): > 100 µM
TGI (DLD-1 colon): > 100 µM
TGI (UACC-62 melanoma): > 100 µM
TGI (A498 renal): > 100 µM
TGI (UACC-257 melanoma): > 100 µM
TGI (SF-295 CNS): > 100 µM
TGI (SK-OV-3 ovarian): > 100 µM
TGI (SNB-75 CNS): > 100 µM
TGI (NCI-H522 lung): 52.5 µM
TGI (OVCAR-4 ovarian): > 100 µM
TGI (RPMI-8226 leukemia): > 100 µM
TGI (SK-MEL-5 melanoma): > 100 µM
TGI (M19-MEL melanoma): > 100 µM
TGI (TK-10 renal): > 100 µM
TGI (IGROV1 ovarian): > 100 µM
TGI (OVCAR-3 ovarian): > 100 µM
TGI (SNB-78 CNS): > 100 µM
TGI (DMS 273 small cell lung): > 100 µM
TGI (SF-539 CNS): > 100 µM
TGI (SK-MEL-28 melanoma): > 100 µM
TGI (LXFL 529 NSCLC): > 100 µM
TGI (KM12 colon): > 100 µM
TGI (UO-31 renal): > 100 µM
TGI (EKVX NSCLC): > 100 µM
TGI (KM20L2 colon): 42.3 µM

CC(=O)OCc1cc(OC(C)=O)cnc1COC(C)=O
TGI (SNB-19 CNS): > 100 µM
TGI (HT29 colon): > 100 µM
TGI (HOP-18 NSCLC): > 100 µM
TGI (MALME-3M melanoma): > 100 µM
TGI (DMS 114 small cell lung): > 100 µM
TGI (NCI-H23 lung): > 100 µM
TGI (SW-620 colon): > 100 µM
TGI (SR leukemia): > 100 µM
TGI (SF-268 CNS): > 100 µM
TGI (ACHN renal): > 100 µM
TGI (CCRF-CEM leukemia): > 100 µM
TGI (A549 NSCLC): > 100 µM
TGI (HOP-62 NSCLC): > 100 µM
TGI (M14 melanoma): > 100 µM
TGI (NCI-H226 lung): > 100 µM
TGI (HOP-92 NSCLC): > 100 µM
TGI (RXF 393 renal): > 100 µM
TGI (OVCAR-5 ovarian): > 100 µM
TGI (HCT-15 colon): > 100 µM
TGI (SN12C renal): > 100 µM
TGI (LOX IMVI melanoma): > 100 µM
TGI (XF 498 CNS): > 100 µM
TGI (OVCAR-8 ovarian): > 100 µM
TGI (U251 CNS): > 100 µM
TGI (RXF-631 renal): > 100 µM
TGI (CAKI-1 renal): > 100 µM
TGI (MOLT-4 leukemia): > 100 µM
TGI (HCT-116 colon): > 100 µM
TGI (HL-60(TB) leukemia): > 100 µM
TGI (SK-MEL-2 melanoma): > 100 µM
TGI (K-562 leukemia): > 100 µM
TGI (786-0 renal): > 100 µM
TGI (NCI-H460 lung): > 100 µM
TGI (COLO 205 colon): > 100 µM
TGI (DLD-1 colon): > 100 µM
TGI (UACC-62 melanoma): > 100 µM
TGI (A498 renal): > 100 µM
TGI (UACC-257 melanoma): > 100 µM
TGI (SF-295 CNS): > 100 µM
TGI (SK-OV-3 ovarian): > 100 µM
TGI (SNB-75 CNS): > 100 µM
TGI (NCI-H522 lung): > 100 µM
TGI (OVCAR-4 ovarian): > 100 µM
TGI (SK-MEL-5 melanoma): > 100 µM
TGI (M19-MEL melanoma): > 100 µM
TGI (TK-10 renal): > 100 µM
TGI (IGROV1 ovarian): > 100 µM
TGI (OVCAR-3 ovarian): > 100 µM
TGI (DMS 273 small cell lung): > 100 µM
TGI (SF-539 CNS): > 100 µM
TGI (SK-MEL-28 melanoma): > 100 µM
TGI (LXFL 529 NSCLC): > 100 µM
TGI (KM12 colon): > 100 µM
TGI (UO-31 renal): > 100 µM
TGI (EKVX NSCLC): > 100 µM
TGI (KM20L2 colon): > 100 µM
